69 molecules from patent US7279444B2, “Substituted benzoylpyrazoles” (Bayer CropScience GmbH, priority 1999, dated 2007) can be followed below.

Marks after values point to notes of the source that are not given here.

A short description of one data set: log P by HPLC on reversed-phase column (C 18), acidic range. The class given is physicochemical.
Conditions: not given
As to the method:
Temperature: 43° C. […] The log P values given in Table 3 were determined in accordance with EEC Directive 79/831 Annex V.A8 by HPLC (High Performance Liquid Chromatography) on a reversed-phase column (C 18). Temperature: 43° C. […] The log P values given in Tables 4 were determined in accordance with EEC Directive 79/831 Annex V.A8 by HPLC (High Performance Liquid Chromatography) on a reversed-phase column (C 18). Temperature: 43° C.
`CCOC(=O)c1ccc(C(F)(F)F)cc1Cn1nc(Br)n(C2CC2)c1=O` [IV-79]: the logP entry was “logP = 3.35^a)”.

As for `CCn1ncc(C(=O)c2ccc(Cn3nc(SC)n(C)c3=O)c(OC)c2[N+](=O)[O-])c1O` [Example 60], the logP result is recorded as “logP = 1.92^a)”.

In the case of `CCn1ncc(C(=O)c2ccc(Cl)c(Cn3nc(OCC(F)(F)F)n(C4CC4)c3=O)c2Cl)c1O` [Example 34], the logP result was “(IB)logP = 2.65^a)”.

In the case of `COc1nn(Cc2c(Cl)ccc(C(=O)c3c(C)nn(C)c3O)c2Cl)c(=O)n1C` [Example 53], the logP result was “logP = 1.48^a)”.

Regarding `COC(=O)c1ccc(Cl)c(Cn2nc(SC)n(C3CC3)c2=O)c1Cl` [IV-19], the logP entry is listed as “logP = 2.70^a)”.

Turning to `CCOC(=O)c1ccc(C(F)(F)F)cc1Cn1nc(CC)n(OCC)c1=O` [IV-48], the logP result is “logP = 3.38^a)”.

For the molecule `CCOc1nn(Cc2cc(C(F)(F)F)ccc2C(=O)OC)c(=O)n1C` [IV-117], the logP entry was “logP = 2.74^a)”.

Turning to `COc1nn(Cc2c(Cl)ccc(C(=O)c3c(C)nn(C(C)(C)C)c3O)c2Cl)c(=O)n1C` [Example 48], the logP result is given as “logP = 3.02^a)”.

Regarding `CCn1ncc(C(=O)c2ccc(Cl)c(Cn3nc(C)n(C)c3=O)c2Cl)c1O` [Example 29], the logP entry is reported as “logP = 1.38^a)”.

For `COC(=O)c1ccc(Cl)c(Cn2nc(SC)n(C)c2=O)c1Cl` [IV-3], the logP result was “logP = 2.27^a)”.

`CCn1ncc(C(=O)c2ccc(Cl)c(Cn3nc4n(c3=O)CCCC4)c2Cl)c1O` [Example 30]: the logP result is recorded as “logP = 1.55^a)”.

Take `CCn1ncc(C(=O)c2ccc(F)c(Cn3nc(SC)n(C)c3=O)c2Cl)c1O` [Example 70]: the logP result is listed as “logP = 1.76^a)”.

As to `CCOC(=O)c1ccc(Br)cc1Cn1nc(OCC)n(C)c1=O` [IV-58], the logP entry is “logP = 2.95^a)”.

Turning to `CCOC(=O)c1ccc(Cl)cc1Cn1nc(SC)n(C)c1=O` [IV-81], the logP entry was “logP = 2.83^a)”.

Turning to `CCn1ncc(C(=O)c2ccc(C(F)(F)F)cc2Cn2nc(C)n(C)c2=O)c1O` [Example 64], the logP result is recorded as “logP = 1.80^a)”.

For `CCOC(=O)c1ccc([N+](=O)[O-])cc1Cn1nc(OCC)n(C2CC2)c1=O` [IV-45], the logP entry is given as “logP = 2.42^a)”.

As to `CCn1nc(C)c(C(=O)c2ccc(Cl)c(Cn3nc(SC)n(C)c3=O)c2Cl)c1O` [Example 41], the logP entry is recorded as “logP = 1.91^a)”.

Turning to `CCOC(=O)c1ccc(C(F)(F)F)cc1Cn1c(=O)n(C)c(=O)n1C` [IV-113], the logP entry is “logP = 2.58^a)”.

Take `CCOn1c(CC)nn(Cc2c(Cl)ccc(C(=O)c3cnn(CC)c3O)c2Cl)c1=O` [Example 38]: the logP entry is given as “(IB)logP = 2.16^a)”.

Turning to `CCn1ncc(C(=O)c2ccc(F)c(Cn3nc(N(C)C)n(C)c3=O)c2Cl)c1O` [Example 72], the logP entry is recorded as “logP = 1.62^a)”.

With `CCOC(=O)c1ccc(Br)cc1Cn1nc(Br)n(C)c1=O` [IV-75], the logP entry is on record as “logP = 2.80^a)”.

`CCn1ncc(C(=O)c2ccc(C(F)(F)F)cc2Cn2nc(SC)n(C)c2=O)c1OCC(=O)c1ccccc1` [ID-45]: the logP result is “logP = 3.19^a)”.

Consider `CCn1ncc(C(=O)c2ccc(C(F)(F)F)cc2Cn2nc(SC)n(C)c2=O)c1OS(=O)(=O)c1ccc(C)cc1` [ID-10], for which the logP result was “logP = 3.73^a)”.

Regarding `CCOc1nn(Cc2cc(C(F)(F)F)ccc2C(=O)c2cnn(CC)c2OCc2ccc(C(F)(F)F)cc2)c(=O)n1C` [ID-26], the logP result is on record as “logP = 3.98^a)”.

As to `CCn1ncc(C(=O)c2ccc(Cl)cc2-n2nc(C(F)(F)F)n(C)c2=O)c1O` [Example 16], the logP entry was “logP = 2.47^a)”.

As for `CCn1ncc(C(=O)c2ccc(Cl)c(Cn3nc(OC)n(C)c3=O)c2Cl)c1O` [Example 21], the logP entry is “logP = 1.69^a)”.

`CCn1ncc(C(=O)c2cc(-n3nc(C(F)(F)F)n(C)c3=O)ccc2C(F)(F)F)c1O` [Example 13]: the logP entry is “logP = 2.83^a)”.

As for `CCOc1nn(Cc2cc(F)ccc2C(=O)c2c(C)nn(C)c2O)c(=O)n1C1CC1` [Example 11], the logP result is listed as “(IA)logP = 1.80^a)”.

Take `CCOC(=O)c1ccc(Br)cc1Cn1nc2n(c1=O)CCC2` [IV-68]: the logP entry is given as “logP = 2.16^a)”.

`CCOc1nn(Cc2cc(C(F)(F)F)ccc2C(=O)c2cnn(CC)c2OCc2ccc(Cl)c(Cl)c2)c(=O)n1C` [ID-23]: the logP entry was “logP = 4.26^a)”.

As to `CCn1ncc(C(=O)c2ccc(S(C)(=O)=O)cc2Cn2nc(C(F)(F)F)n(C)c2=O)c1O` [Example 67], the logP entry was “logP = 1.60^a)”.

Turning to `CCOC(=O)c1ccc(C(F)(F)F)cc1Cn1nc(OCC(F)(F)F)n(C)c1=O` [IV-93], the logP result is “logP = 3.45^a)”.

On to `CCOC(=O)c1ccc(Cl)cc1Cn1nc(OCC)n(C2CC2)c1=O` [IV-42], for which the logP entry is listed as “logP = 3.23^a)”.

In the case of `CCn1ncc(C(=O)c2ccc(C(F)(F)F)cc2Cn2nc(SC)n(C)c2=O)c1OCc1ccc(F)cc1` [ID-38], the logP result is listed as “logP = 3.41^a)”.

For the molecule `CCn1ncc(C(=O)c2ccc(Cl)c(Cn3nc(SC)n(C)c3=O)c2F)c1O` [Example 62], the logP entry is recorded as “logP = 1.99^a)”.

Regarding `CCOC(=O)c1ccc(Br)cc1Cn1nc(C(F)(F)F)n(C)c1=O` [IV-35], the logP result was “logP = 3.40^a)”.

Consider `CCOC(=O)c1ccc(C(F)(F)F)cc1Cn1nc(N(C)C)n(C)c1=O` [IV-85], for which the logP result was “logP = 2.79^a)”.

For `CCOC(=O)c1ccc(C(F)(F)F)cc1Cn1nc(OC(C)C)n(C)c1=O` [IV-70], the logP result is “logP = 3.51^a)”.

As to `CCOC(=O)c1ccc(C(F)(F)F)cc1Cn1nc(SC)n(C)c1=O` [IV-49], the logP result is “logP = 3.02^a)”.

For the molecule `CCOc1nn(Cc2cc(C(F)(F)F)ccc2C(=O)c2cnn(CC)c2OCc2ccc(C#N)cc2)c(=O)n1C` [ID-20], the logP result is given as “logP = 3.12^a)”.

In the case of `COC(=O)c1ccc(Cl)c(CN2CCN(C)C2=O)c1Cl` [IV-23], the logP entry is on record as “logP = 1.98^a)”.

As to `CCn1ncc(C(=O)c2ccc(C(F)(F)F)cc2Cn2nc(SC)n(C)c2=O)c1OCc1cccc(Cl)c1` [ID-41], the logP entry is “logP = 3.76^a)”.

As for `C=CCSc1nn(Cc2cc(Br)ccc2C(=O)c2cnn(CC)c2O)c(=O)n1C` [Example 12], the logP entry is listed as “(IA)logP = 2.69^a)”.

Take `CN1CCN(Cc2c(Cl)ccc(C(=O)c3cnn(C)c3O)c2Cl)C1=O` [ID-50]: the logP result is reported as “logP = 1.41^a)”.

As to `CN1CCCN(Cc2c(Cl)ccc(C(=O)c3cnn(C)c3O)c2Cl)C1=O` [ID-3], the logP entry was “logP = 1.52^a)”.

Consider `Cn1ncc(C(=O)c2ccc(Cl)c(Cn3nc(Br)n(C)c3=O)c2Cl)c1O` [Example 40], for which the logP entry is “logP = 1.53^a)”.

`CCOC(=O)c1ccc(Br)cc1CN1C(=O)CCC1=O` [IV-60]: the logP result was “logP = 2.44^a)”.

With `COC(=O)c1ccc(Cl)c(Cn2nc(C3CC3)n(C3CC3)c2=O)c1Cl` [IV-5], the logP entry was “logP = 2.55^a)”.

On to `CCOc1nn(Cc2cc(C(F)(F)F)ccc2C(=O)c2cnn(CC)c2OCc2ccc(F)cc2)c(=O)n1C` [ID-21], for which the logP entry is “logP = 3.49^a)”.

On to `CCOn1c(CC)nn(Cc2c(Cl)ccc(C(=O)OC)c2Cl)c1=O` [IV-22], for which the logP entry is “logP = 2.58^a)”.

With `CCOc1nn(Cc2c(Cl)ccc(C(=O)OC)c2Cl)c(=O)n1C` [IV-4], the logP entry is listed as “logP = 2.38^a)”.

Regarding `CCn1nc(C)c(C(=O)c2ccc(Cl)c(CN3CCCN(C)C3=O)c2Cl)c1O` [ID-5], the logP entry is listed as “logP = 1.72^a)”.

Regarding `CCOC(=O)c1ccc(Cl)cc1Cn1nc(CC)n(OCC)c1=O` [IV-44], the logP result is “logP = 3.14^a)”.

`CCn1ncc(C(=O)c2ccc(C(F)(F)F)cc2Cn2nc(OC)n(C)c2=O)c1O` [Example 66]: the logP entry is listed as “logP = 2.27^a)”.

`COC(=O)c1ccc(Cl)c(Cn2ncn(C)c2=O)c1Cl` [IV-10]: the logP entry is reported as “logP = 1.55^a)”.

Regarding `CCOc1c(C(=O)c2ccc(C(F)(F)F)cc2Cn2nc(SC)n(C)c2=O)cnn1CC` [ID-31], the logP result is recorded as “logP = 2.71^a)”.

Regarding `CCn1ncc(C(=O)c2ccc(C(F)(F)F)cc2Cn2nc(SC)n(C)c2=O)c1OCC(=O)c1ccc(Cl)cc1` [ID-47], the logP result was “logP = 3.64^a)”.

Turning to `CCCOc1nn(Cc2cc(Br)ccc2C(=O)OCC)c(=O)n1C` [IV-66], the logP result is recorded as “logP = 3.38^a)”.

With `CCOC(=O)c1ccc(F)cc1Cn1nc(SC)n(C)c1=O` [IV-37], the logP entry is “logP = 2.45^a)”.

Turning to `CCn1ncc(C(=O)c2ccc(C(F)(F)F)cc2Cn2nc(SC)n(C)c2=O)c1OCc1cccc(C(F)(F)F)c1` [ID-44], the logP entry was “logP = 3.85^a)”.

With `COC(=O)c1ccc(Cl)c(CN2C(=O)c3ccccc3S2(=O)=O)c1Cl` [IV-25], the logP result was “logP = 2.94^a)”.

In the case of `CCN1CCN(Cc2c(Cl)ccc(C(=O)c3c(C)nn(C(C)(C)C)c3O)c2Cl)C1=O` [ID-58], the logP result is listed as “logP = 3.15^a)”.

On to `CCOC(=O)c1ccc(F)cc1Cn1nc(N(C)C)n(C)c1=O` [IV-94], for which the logP entry is recorded as “logP = 2.21^a)”.

For `CCOc1nn(Cc2cc(C(F)(F)F)ccc2C(=O)c2cnn(CC)c2OC)c(=O)n1C` [ID-13], the logP result is recorded as “logP = 2.74^a)”.

With `CCOc1nn(Cc2cc(C(F)(F)F)ccc2C(=O)c2cnn(CC)c2OS(=O)(=O)c2ccc(C)cc2)c(=O)n1C` [ID-9], the logP entry was “logP = 3.82^a)”.

As for `CCOc1nn(Cc2cc(C(F)(F)F)ccc2C(=O)c2cnn(CC)c2OCc2ccc([N+](=O)[O-])cc2)c(=O)n1C` [ID-25], the logP result is on record as “logP = 3.33^a)”.

Turning to `CCn1ncc(C(=O)c2ccc(Cl)c(Cn3nc(OC(C)C)n(C)c3=O)c2Cl)c1O` [Example 22], the logP entry is “logP = 2.31^a)”.

In the case of `CCn1ncc(C(=O)c2ccc(Cl)c(Cn3nc(OC(C)C)n(C4CC4)c3=O)c2Cl)c1O` [Example 33], the logP result is recorded as “(IB)logP = 4.64^a)”.

The same data set, now with this note: reversed-phase HPLC column (C 18); pH=2.
In general, chromatographic logP refers to lipophilicity estimated from chromatographic retention. Higher therefore signals a more lipophilic compound. `CCn1ncc(C(=O)c2ccc(-n3nc(C(F)(F)F)n(C)c3=O)cc2Cl)c1O` [Example 1, 4-methyl-5-trifluoromethyl-2-[3-chloro-4-(1-ethyl-5-hydroxy-pyrazol-4-yl-carbonyl)-phenyl]-2,4-dihydro-3H-1,2,4-triazol-3-one] gave a chromatographic logP of 2.63.
